Molecular target: T1, BtGH53 (BT_4668), GH53 endo-beta-(1->4)-galactanase (Bacteroides thetaiotaomicron, UniProt Q89YR3)
T1 sequence (Q89YR3 23-353): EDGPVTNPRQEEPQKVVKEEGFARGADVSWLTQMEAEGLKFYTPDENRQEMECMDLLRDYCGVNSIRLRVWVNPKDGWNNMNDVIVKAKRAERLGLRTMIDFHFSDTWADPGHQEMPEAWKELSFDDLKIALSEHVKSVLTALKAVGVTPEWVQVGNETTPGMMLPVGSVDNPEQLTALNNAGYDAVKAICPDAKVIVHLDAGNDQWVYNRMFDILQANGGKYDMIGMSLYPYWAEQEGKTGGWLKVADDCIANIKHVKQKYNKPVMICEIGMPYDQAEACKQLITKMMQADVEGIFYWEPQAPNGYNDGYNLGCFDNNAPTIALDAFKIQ
Assay: TLC and HPAEC-PAD of hydrolysis products
Format: biochemical
Settings: component of purified GOS mixture (TS0903), not tested singly; 20 mM Tris pH 7.5, 150 mM NaCl, 37 °C, 16 h

SMILES: OC[C@H]1O[C@@H](O[C@@H]2[C@H](O)[C@@H](O)[C@H](O[C@H]3[C@H](O)[C@@H](O)C(O)O[C@@H]3CO)O[C@@H]2CO)[C@H](O)[C@@H](O)[C@H]1O (stereo partly drawn) [compound 9, β-D-Galp-(1 → 4)-β-D-Galp-(1 → 4)-β-D-Glc]
- TLC and HPAEC-PAD of hydrolysis products: BtGH53 hydrolyzes linear DP3 and higher GOS compounds
